{"source": "patent US8461107B2", "about": "(Merck Sharp & Dohme Corp., priority 2008, dated 2013)"}
{"biological_target": "T1, HCV genotype 1b (BK) NS3 modified with a R155K mutation (Hepatitis C virus genotype 1b, UniProt P26663, R1181K)", "T1 construct": "HCV genotype 1b (BK) NS3 modified with a R155K mutation", "assay": "HCV NS3 protease time-resolved fluorescence (TRF) assay, NS3 protease 1b R155K Ki activity", "type": "biochemical", "settings": "HCV genotype 1b (BK) NS3 with R155K mutation; TRF peptide substrate 100 nM; Ki derived from IC50", "outline": "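Pre-incubation of NS3/NS4A protease (genotype 1b BK, R155K) with inhibitor for 30 min, then 1 h at room temperature with 100 nM TRF peptide substrate in pH 7.5 HEPES buffer with 10 mM DTT. Reaction quenched with pH 5.5 MES; time-resolved fluorescence read (ex 340/em 615 nm). Ki derived from four-parameter IC50 fit via IC50=Ki(1+[S]/KM).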", "units": {"Ki": "nM"}}
{"molecule": "C=C[C@@H]1C[C@]1(NC(=O)[C@@H]1C[C@@H]2CN1C(=O)[C@H](C1CCCC1)NC(=O)O[C@@H]1CCC[C@H]1CCCCCn1c(nc3cc(Cl)ccc3c1=O)O2)C(=O)NS(=O)(=O)C1CC1", "note": "[(3aR,7S,10S,12R,25aR)-16-chloro-7-cyclopentyl-N-((1R,2S)-1-{[(cyclopropylsulfonyl)amino]carbonyl}-2-vinylcyclopropyl)-5,8,19-trioxo-1,2,3,3a,5,6,7,8,11,12,21,22,23,24,25,25a-hexadecahydro-10H,19H-9,12-methanocyclopenta[18,19][1,10,3,6,12]dioxatriazacyclononadecino[11,12-b]quinazoline-10-carboxamide]", "Ki": "< 0.1"}
{"molecule": "C=C[C@@H]1C[C@]1(NC(=O)[C@@H]1C[C@@H]2CN1C(=O)[C@H](C1CCCC1)NC(=O)O[C@@H]1CCC[C@H]1CCCCCn1c(cc3cc(Cl)ccc3c1=O)O2)C(=O)NS(=O)(=O)C1CC1", "note": "[(3aR,7S,10S,12R,25aR)-16-chloro-7-cyclopentyl-N-((1R,2S)-1-{[(cyclopropylsulfonyl)amino]carbonyl}-2-vinylcyclopropyl)-5,8,19-trioxo-1,2,3,3a,5,6,7,8,11,12,21,22,23,24,25,25a-hexadecahydro-10H,19H-9,12-methanocyclopenta[18,19][1,10,3,6,12]dioxatriazacyclononadecino[12,11-b]isoquinoline-10-carboxamide]", "Ki": "< 0.1"}
{"molecule": "C=C[C@@H]1C[C@]1(NC(=O)[C@@H]1C[C@@H]2CN1C(=O)[C@H](C1CCCC1)NC(=O)O[C@@H]1CCC[C@H]1CCCCCCn1c(cc3ccccc3c1=O)O2)C(=O)NS(=O)(=O)C1CC1", "note": "[(3aR,7S,10S,12R,26aR)-7-cyclopentyl-N-((1R,2S)-1-{[(cyclopropylsulfonyl)amino]carbonyl}-2-vinylcyclopropyl)-5,8,19-trioxo-2,3,3a,5,6,7,8,11,12,21,22,23,24,25,26,26a-hexadecahydro-1H,10H,19H-9,12-methanocyclopenta[19,20][1,10,3,6,12]dioxatriazacycloicosino[12,11-b]isoquinoline-10-carboxamide]", "Ki": "0.1 to 0.5"}
{"molecule": "CC[C@@H]1C[C@]1(NC(=O)[C@@H]1C[C@@H]2CN1C(=O)[C@H](C(C)(C)C)NC(=O)O[C@@H]1CCC[C@H]1CCCCCCn1c(cc3ccccc3c1=O)O2)C(=O)NS(=O)(=O)C1CC1", "note": "[(3aR,7S,10S,12R,26aR)-7-tert-butyl-N-((1R,2R)-1-{[(cyclopropylsulfonyl)amino]carbonyl}-2-ethylcyclopropyl)-5,8,19-trioxo-2,3,3a,5,6,7,8,11,12,21,22,23,24,25,26,26a-hexadecahydro-1H,10H,19H-9,12-methanocyclopenta[19,20][1,10,3,6,12]dioxatriazacycloicosino[12,11-b]isoquinoline-10-carboxamide]", "Ki": "1 to 5"}
{"molecule": "C=C[C@@H]1C[C@]1(NC(=O)[C@@H]1C[C@@H]2CN1C(=O)[C@H](C(C)(C)C)NC(=O)O[C@@H]1CCC[C@H]1CCCCCCn1c(cc3ccccc3c1=O)O2)C(=O)NS(=O)(=O)C1CC1", "note": "[(3aR,7S,10S,12R,26aR)-7-tert-butyl-N-((1R,2S)-1-{[(cyclopropylsulfonyl)amino]carbonyl}-2-vinylcyclopropyl)-5,8,19-trioxo-2,3,3a,5,6,7,8,11,12,21,22,23,24,25,26,26a-hexadecahydro-1H,10H,19H-9,12-methanocyclopenta[19,20][1,10,3,6,12]dioxatriazacycloicosino[12,11-b]isoquinoline-10-carboxamide]", "Ki": "0.1 to 0.5"}
{"molecule": "CC[C@@H]1C[C@]1(NC(=O)[C@@H]1C[C@@H]2CN1C(=O)[C@H](C(C)(C)C)NC(=O)O[C@H]1CCC[C@@H]1CCCCCCn1c(cc3ccccc3c1=O)O2)C(=O)NS(=O)(=O)C1CC1", "note": "[(3aS,7S,10S,12R,26aS)-7-tert-butyl-N-((1R,2R)-1-{[(cyclopropylsulfonyl)amino]carbonyl}-2-ethylcyclopropyl)-5,8,19-trioxo-2,3,3a,5,6,7,8,11,12,21,22,23,24,25,26,26a-hexadecahydro-1H,10H,19H-9,12-methanocyclopenta[19,20][1,10,3,6,12]dioxatriazacycloicosino[12,11-b]isoquinoline-10-carboxamide]", "Ki": "1 to 5"}
{"molecule": "C=C[C@@H]1C[C@]1(NC(=O)[C@@H]1C[C@@H]2CN1C(=O)[C@H](C(C)(C)C)NC(=O)O[C@H]1CCC[C@@H]1CCCCCCn1c(cc3ccccc3c1=O)O2)C(=O)NS(=O)(=O)C1CC1", "note": "[(3aS,7S,10S,12R,26aS)-7-tert-butyl-N-((1R,2S)-1-{[(cyclopropylsulfonyl)amino]carbonyl}-2-vinylcyclopropyl)-5,8,19-trioxo-2,3,3a,5,6,7,8,11,12,21,22,23,24,25,26,26a-hexadecahydro-1H,10H,19H-9,12-methanocyclopenta[19,20][1,10,3,6,12]dioxatriazacycloicosino[12,11-b]isoquinoline-10-carboxamide]", "Ki": "0.5 to 1"}
{"molecule": "C=C[C@@H]1C[C@]1(NC(=O)[C@@H]1C[C@@H]2CN1C(=O)[C@H](C1CCCC1)NC(=O)O[C@@H]1CCC[C@H]1C/C=C/CCn1c(cc3ccccc3c1=O)O2)C(=O)NS(=O)(=O)C1CC1", "note": "[Example 1, (3aR,7S,10S,12R,23E,25aS)-7-cyclopentyl-N-((1R,2S)-1-{[(cyclopropylsulfonyl)amino]carbonyl}-2-vinylcyclopropyl)-5,8,19-trioxo-1,2,3,3a,5,6,7,8,11,12,21,22,25,25a-tetradecahydro-10H,19H-9,12-methanocyclopenta[18,19][1,10,3,6,12]dioxatiazacyclononadecino[12,11-b]isoquinoline-10-carboxamide]", "Ki": "< 0.1"}
{"molecule": "C=C[C@@H]1C[C@]1(NC(=O)[C@@H]1C[C@@H]2CN1C(=O)[C@H](C1CCCC1)NC(=O)O[C@@H]1CCC[C@H]1CCCCCn1c(cc3ccccc3c1=O)O2)C(=O)NS(=O)(=O)C1CC1", "note": "[Example 13, (3aR,7S,10S,12R,25aR)-7-cyclopentyl-N-((1R,2S)-1-{[(cyclopropylsulfonyl)amino]carbonyl}-2-vinylcyclopropyl)-5,8,19-trioxo-1,2,3,3a,5,6,7,8,11,12,21,22,23,24,25,25a-hexadecahydro-10H,19H-9,12-methanocyclopenta[18,19][1,10,3,6,12]dioxatriazacyclotionadecino[12,11-b]isoquinoline-10-carboxamide]", "Ki": "< 0.1"}
{"molecule": "CC[C@@H]1C[C@]1(NC(=O)[C@@H]1C[C@@H]2CN1C(=O)[C@H](C1CCCC1)NC(=O)O[C@@H]1CCC[C@H]1CCCCCn1c(cc3ccc(F)cc3c1=O)O2)C(=O)NS(=O)(=O)C1CC1", "note": "[Example 16, (3aR,7S,10S,12R,25aR)-7-cyclopentyl-N-((1R,2R)-1-{[(cyclopropylsulfonyl)amino]carbonyl}-2-ethylcyclopropyl)-17-flouoro-5,8,19-trioxo-1,2,3,3a,5,6,7,8,11,12,21,22,23,24,25,25a-hexadecahydro-10H,19H-9,12-methanocyclopenta[18,19][1,10,3,6,12]dioxatriazacyclononadecino[12,11-b]isoquinoline-10-carboxamide]", "Ki": "0.1 to 0.5"}
{"molecule": "C=C[C@@H]1C[C@]1(NC(=O)[C@@H]1C[C@@H]2CN1C(=O)[C@H](C1CCCC1)NC(=O)O[C@@H]1CCC[C@H]1CCCCn1c(cc3ccccc3c1=O)O2)C(=O)NS(=O)(=O)C1CC1", "note": "[Example 19, (3aR,7S,10S,12R,24aR)-7-cyclopentyl-N-((1R,2S)-1-{[(cycloproylsulfonyl)amino]carbonyl}-2-vinylcyclopropyl)-5,8,19-trioxo-2,3,3a,5,6,7,8,11,12,21,22,23,24,24a-tetradecahydro-1H,10H,19H-9,12-methanocyclopenta[17,18][1,10,3,6,12]dioxatriazacyclooctadecino[12,11-b]isoquinoline-10-carboxamide]", "Ki": "0.1 to 0.5"}
{"molecule": "CC[C@@H]1C[C@]1(NC(=O)[C@@H]1C[C@@H]2CN1C(=O)[C@H](C(C)(C)C)NC(=O)O[C@@H]1CCC[C@H]1CCCCCn1c(cc3cc(Cl)ccc3c1=O)O2)C(=O)NS(=O)(=O)C1CC1", "note": "[Example 28, (3aR,7S,10S,12R,25aR)-7-tert-butyl-16-chloro-N-((1R,2R)-1-{[(cyclopropylsulfonyl)amino]carbonyl}-2-ethylcyclopropyl)-5,8,19-trioxo-1,2,3,3a,5,6,7,8,11,12,21,22,23,24,25,25a-hexadecahydro-10H,19H-9,12-methanocyclopenta[18,19][1,10,3,6,12]dioxatriazacyclononadecino[12,11-b]isoquinolin-10-carboxamide]", "Ki": "0.1 to 0.5"}
{"molecule": "C=C[C@@H]1C[C@]1(NC(=O)[C@@H]1C[C@@H]2CN1C(=O)[C@H](C1CCCC1)NC(=O)O[C@@H]1CCC[C@H]1CC/C=C/Cn1c(nc3cc(Br)ccc3c1=O)O2)C(=O)NS(=O)(=O)C1CC1", "note": "[Example 43, (3aR,7S,10S,12R,22E,25aS)-16-bromo-7-cyclopentyl-N-((1R,2S)-1-{[(cyclopropylsulfonyl)amino]carbonyl}-2-vinylcyclopropyl)-5,8,19-trioxo-1,2,3,3a,5,6,7,8,11,12,21,24,25,25a-tetradecahydro-10H,19H-9,12-methanocyclopenta[18,19][1,10,3,6,12]dioxatriazatriazacyclononadecino[11,12-b]quinazoline-10-carboxamide]", "Ki": "< 0.1"}
{"molecule": "CC[C@@H]1C[C@]1(NC(=O)[C@@H]1C[C@@H]2CN1C(=O)[C@H](C1CCCC1)NC(=O)O[C@@H]1CCC[C@H]1CC/C=C/Cn1c(nc3cc(OC)ccc3c1=O)O2)C(=O)NS(=O)(=O)C1CC1", "note": "[Example 50, (3aR,7S,10S,12R,22E,25aS)-7-cylcopentyl-N-((1R,2R)-1-{[(cyclopropylsulfonyl)amino]carbonyl}-2-ethylcyclopropyl)-16-methoxy-5,8,19-trioxo-1,2,3,3a,5,6,7,8,11,12,21,24,25,25a-tetradecahydro-10H,19H-9,12-methanocyclopenta[18,19][1,10,3,6,12]dioxatriazacyclononadecino[11,12-b]quinazoline-10-carboxamide]", "Ki": "0.1 to 0.5"}
{"molecule": "C=C[C@@H]1C[C@]1(NC(=O)[C@@H]1C[C@@H]2CN1C(=O)[C@H](C1CCCC1)NC(=O)O[C@@H]1CCC[C@H]1CC/C=C/Cn1c(nc3c(OC)cccc3c1=O)O2)C(=O)NS(=O)(=O)C1CC1", "note": "[Example 51]", "Ki": "< 0.1"}
